Structures can show the parent of a compound that is named as a salt. Where two headings read alike, the source gives them in different places.
Tests used:
[1] = test system: NCI-H292 lung cancer cells; assay: FDA drug screening, complete media vs cholesterol-free media without statin (TABLE 1); format: cell-based, human
[2] = test system: NCI-H292 lung cancer cells; assay: FDA drug screening, complete media vs cholesterol-free media with simvastatin (TABLE 2); format: cell-based, human
[3] = Complete minus Cholesterol-free, greater than 0 enhanced anti-cancer activity, about 0 neutral, below 0 antagonists
[4] = NCI-H292 cells in cholesterol-free media without statin
[5] = NCI-H292 cells in complete media
[6] = NCI-H292 cells, cholesterol-free media with simvastatin 0.04 μM, cell growth value in FDA drug screen
[7] = NCI-H292 cells, complete media, cell growth value in FDA drug screen
[8] = complete media minus cholesterol-free media + simvastatin, >0 enhanced anti-cancer activity, about 0 neutral, <0 antagonist
[9] = NCI-H292 cells, FDA library drug in complete media
[10] = complete media vs cholesterol-free media + simvastatin (0.04 μM), >0 enhanced anti-cancer activity, about 0 neutral, <0 antagonist
[11] = Complete minus Cholesterol-free, […]
[12] = NCI-H292 cells, FDA drug library screen, cholesterol-free media without statin
[13] = NCI-H292 cells, FDA drug library screen, complete media
[14] = complete media minus cholesterol-free media + simvastatin, […]
[15] = NCI-H292 cells, cholesterol-free media without statin
[16] = NCI-H292 cells, FDA library drug in cholesterol-free media with simvastatin 0.04 μM
[17] = Complete minus Cholesterol-free, >0 enhanced anti-cancer activity, about 0 neutral, <0 antagonist
[18] = NCI-H292 cells, cholesterol-free media without statin, FDA drug library screen
[19] = NCI-H292 cells, complete media, FDA drug library screen
[20] = NCI-H292 cells, FDA drug library screen, cholesterol-free media with simvastatin 0.04 μM
[21] = NCI-H292 cells, drug in cholesterol-free media with simvastatin 0.04 μM
[22] = NCI-H292 cells, drug in complete media
[23] = complete vs cholesterol-free media, >0 enhanced anti-cancer activity, about 0 neutral, <0 antagonist
[24] = complete vs cholesterol-free media, greater than 0 enhanced anti-cancer activity, about 0 neutral, below 0 antagonists

SMILES: OCCOc1ccc(/C(=C(/CCCl)c2ccccc2)c2ccccc2)cc1 [Ospemifene]
- Cholesterol-free [1]: 1.029
- Complete [1]: 1.255
- Difference [1]: 0.23
- Cholesterol-free media + simvastatin (0.04 μM) [2]: 1.909
- Complete Media [2]: 1.222
- Difference [2]: −0.69

SMILES: CCCCc1oc2ccccc2c1C(=O)c1cc(I)c(OCCN(CC)CC)c(I)c1 [Amiodarone (hydrochloride)]
- Difference [1, 3]: −0.67
- Cholesterol-free [1, 4]: 1.555
- Complete [1, 5]: 0.8858
- Cholesterol-free media + simvastatin (0.04 μM) [2, 6]: 1.081
- Complete Media [2, 7]: 1.107
- Difference [2, 8]: 0.03

SMILES: OC[C@H]1O[C@@H](O[C@H]2[C@H](O)[C@@H](O)[C@@H](O)O[C@@H]2CO)[C@H](O)[C@@H](O)[C@H]1O [Lactose]
- Difference [1, 3]: −0.48
- Complete [1, 5]: 0.6552
- Complete Media [2, 9]: 0.9497
- Difference [2, 10]: −0.28

SMILES: COc1cc(C)c(/C=C/C(C)=C/C=C/C(C)=C/C(=O)O)c(C)c1C [Acitretin]
- Difference [1, 11]: −0.08
- Cholesterol-free [1, 12]: 0.8064
- Complete [1, 13]: 0.7285
- Cholesterol-free media + simvastatin (0.04 μM) ([2]; NCI-H292 cells, cholesterol-free media with simvastatin 0.04 μM, […]): 0.7241
- Complete Media ([2]; NCI-H292 cells, complete media, […]): 0.76
- Difference [2, 14]: 0.04

SMILES: N#Cc1nn(-c2c(Cl)cc(C(F)(F)F)cc2Cl)c(N)c1[S+]([O-])C(F)(F)F (stereo not drawn) [Fipronil]
- Difference [1, 11]: −0.22
- Cholesterol-free [1, 15]: 1.217
- Complete ([1]; NCI-H292 cells, complete media): 1
- Cholesterol-free media + simvastatin (0.04 μM) ([2]; NCI-H292 cells, cholesterol-free media with simvastatin 0.04 μM, FDA drug library screen (TABLE 2)): 1.235
- Complete Media ([2]; NCI-H292 cells, complete media, FDA drug library screen (TABLE 2)): 1.184
- Difference ([2]; complete media minus cholesterol-free media + simvastatin (0.04 μM), […]): −0.05

SMILES: Nc1ccc(C(=O)[O-])c(O)c1.O.O.[Na+] [Sodium 4-aminosalicylate (dihydrate)]
- Difference [1, 11]: −0.15
- Cholesterol-free [1, 12]: 1.093
- Complete [1, 13]: 0.9477
- Cholesterol-free media + simvastatin (0.04 μM) [2, 16]: 1.473
- Complete Media [2, 9]: 1.188
- Difference ([2]; complete media vs cholesterol-free media + simvastatin (0.04 μM), […]): −0.29

SMILES: Nc1ccc(S(=O)(=O)Nc2nccs2)cc1 [Sulfathiazole (sodium)]
- Difference [1, 17]: −0.22
- Cholesterol-free [1, 15]: 1.264
- Complete ([1]; NCI-H292 cells, complete media): 1.047
- Cholesterol-free media + simvastatin (0.04 μM) [2, 16]: 1.852
- Complete Media [2, 9]: 1.04
- Difference [2, 10]: −0.81

SMILES: COc1ccc2[nH]cc(CCNC(C)=O)c2c1 [Melatonin]
- Difference [1, 17]: 0.05
- Cholesterol-free [1, 18]: 0.9489
- Complete [1, 19]: 0.9969
- Cholesterol-free media + simvastatin (0.04 μM) [2, 20]: 1.501
- Complete Media [2, 13]: 1.753
- Difference [2, 8]: 0.25

SMILES: C[C@H](O)[C@H](O)[C@H]1CNc2nc(N)[nH]c(=O)c2N1 [Sapropterin (dihydrochloride)]
- Difference [1, 17]: −0.20
- Cholesterol-free [1, 15]: 1.242
- Complete ([1]; NCI-H292 cells, complete media): 1.038
- Cholesterol-free media + simvastatin (0.04 μM) [2, 21]: 1.145
- Complete Media [2, 22]: 0.9841
- Difference [2, 10]: −0.16

SMILES: N#Cc1ccc(C2CCCc3cncn32)cc1 (stereo not drawn) [Fadrozole]
- Cholesterol-free [1]: 0.5349
- Complete [1]: 1.016
- Difference [1]: 0.48
- Cholesterol-free media + simvastatin (0.04 μM) [2]: 1.426
- Complete Media [2]: 1.038
- Difference [2]: −0.39

SMILES: CCOc1cc(CC(=O)N[C@@H](CC(C)C)c2ccccc2N2CCCCC2)ccc1C(=O)O [Repaglinide]
- Difference ([1]; Complete minus Cholesterol-free, greater than 0 enhanced anti-cancer activity, about 0 neutral, below 0 antagonist): −0.08
- Cholesterol-free [1, 12]: 1.088
- Complete [1, 13]: 1.008
- Cholesterol-free media + simvastatin (0.04 μM) [2, 21]: 0.996
- Complete Media [2, 22]: 0.8125
- Difference [2, 10]: −0.18

SMILES: O=C(O)Cc1ccccc1Nc1c(Cl)cccc1Cl [Diclofenac]
- Difference [1, 17]: −0.25
- Cholesterol-free [1, 15]: 1.167
- Complete ([1]; NCI-H292 cells, complete media): 0.917
- Cholesterol-free media + simvastatin (0.04 μM) [2, 16]: 1.089
- Complete Media [2, 9]: 0.821
- Difference [2, 10]: −0.27

SMILES: NC(=O)OCC(COC(N)=O)c1ccccc1 [Felbamate]
- Cholesterol-free [1, 18]: 0.9609
- Complete [1, 19]: 1.103
- Difference [1, 23]: 0.14
- Cholesterol-free media + simvastatin (0.04 μM) [2, 21]: 1.169
- Complete Media [2, 22]: 0.9237
- Difference [2, 10]: −0.25

SMILES: CC(=O)Nc1cccc(-n2c(=O)n(C3CC3)c(=O)c3c(Nc4ccc(I)cc4F)n(C)c(=O)c(C)c32)c1 [Trametinib]
- Difference [1, 17]: −0.06
- Cholesterol-free [1, 18]: 0.4164
- Complete [1, 19]: 0.3595
- Cholesterol-free media + simvastatin (0.04 μM) [2, 6]: 0.2423
- Complete Media [2, 7]: 0.2586
- Difference [2, 8]: 0.02

SMILES: CCOC(=O)C1=C(C)NC(C)=C(C(=O)OC)C1c1cccc(Cl)c1Cl (stereo not drawn) [Felodipine]
- Difference [1, 17]: −0.19
- Cholesterol-free [1, 15]: 1.202
- Complete ([1]; NCI-H292 cells, complete media): 1.01
- Cholesterol-free media + simvastatin (0.04 μM) [2, 21]: 1.148
- Complete Media [2, 22]: 0.9051
- Difference [2, 10]: −0.24

SMILES: C[Se]CC[C@H](N)C(=O)O [Selenomethionine]
- Difference [1, 3]: −0.63
- Cholesterol-free [1, 4]: 1.898
- Complete [1, 5]: 1.265
- Cholesterol-free media + simvastatin (0.04 μM) [2, 20]: 1.83
- Complete Media [2, 13]: 1.71
- Difference [2, 10]: −0.12

SMILES: CC1(C)OC[C@@H](COC(=O)CCc2ccc(OC[C@@H](O)CNCCNC(=O)N3CCOCC3)cc2)O1 [Landiolol (hydrochloride)]
- Cholesterol-free [1, 15]: 1.352
- Complete ([1]; NCI-H292 cells, complete media): 0.8842
- Difference [1, 24]: −0.47
- Cholesterol-free media + simvastatin (0.04 μM) [2, 20]: 1.311
- Difference [2, 10]: −0.14

SMILES: Cc1ccc(C(=O)c2ccc(CC(=O)O)n2C)cc1 [Tolmetin]
- Cholesterol-free [1, 15]: 0.9799
- Complete ([1]; NCI-H292 cells, complete media): 0.6144
- Difference [1, 24]: −0.37
- Cholesterol-free media + simvastatin (0.04 μM) [2, 16]: 1.718
- Complete Media [2, 9]: 1.392
- Difference [2, 10]: −0.33

SMILES: O=NN(CCCl)C(=O)NCCCl [Carmustine]
- Difference [1, 11]: −0.25
- Cholesterol-free [1, 15]: 0.9766
- Complete ([1]; NCI-H292 cells, complete media): 0.7259
- Cholesterol-free media + simvastatin (0.04 μM) [2, 20]: 1.071
- Complete Media [2, 13]: 1.247
- Difference [2, 14]: 0.18

SMILES: C=C(c1ccc(C(=O)O)cc1)c1cc2c(cc1C)C(C)(C)CCC2(C)C [Bexarotene]
- Difference [1, 17]: −0.22
- Cholesterol-free [1, 15]: 1.341
- Complete ([1]; NCI-H292 cells, complete media): 1.124
- Cholesterol-free media + simvastatin (0.04 μM) [2, 20]: 1.087
- Complete Media [2, 13]: 0.9865
- Difference [2, 10]: −0.10

SMILES: CS(=O)(=O)c1ccc([C@@H](O)[C@@H](CO)NC(=O)C(Cl)Cl)cc1 [Thiamphenicol]
- Cholesterol-free [1, 18]: 0.8085
- Complete [1, 19]: 0.9105
- Difference [1, 23]: 0.10
- Cholesterol-free media + simvastatin (0.04 μM) [2, 20]: 0.911
- Complete Media [2, 13]: 0.7958
- Difference [2, 10]: −0.12

SMILES: CC(=O)[C@H]1CC[C@H]2[C@@H]3CCC4=CC(=O)CC[C@]4(C)[C@H]3CC[C@]12C [Progesterone]
- Cholesterol-free [1, 15]: 1.057
- Complete ([1]; NCI-H292 cells, complete media): 0.6641
- Difference [1, 24]: −0.39
- Cholesterol-free media + simvastatin (0.04 μM) [2, 20]: 1.054
- Complete Media [2, 13]: 0.9232
- Difference [2, 10]: −0.13

SMILES: CCCc1nc(C(C)(C)O)c(C(=O)OCc2oc(=O)oc2C)n1Cc1ccc(-c2ccccc2-c2nnn[nH]2)cc1 [Olmesartan medoxomil]
- Cholesterol-free [1, 18]: 0.613
- Complete [1, 19]: 1.033
- Difference [1, 23]: 0.42
- Cholesterol-free media + simvastatin (0.04 μM) [2, 16]: 2.007
- Complete Media [2, 9]: 1.701
- Difference [2, 10]: −0.31

SMILES: C=CC[C@@H]1/C=C(\C)C[C@H](C)C[C@H](OC)[C@H]2O[C@@](O)(C(=O)C(=O)N3CCCC[C@H]3C(=O)O[C@H](/C(C)=C/[C@@H]3CC[C@@H](O)[C@H](OC)C3)[C@H](C)[C@@H](O)CC1=O)[C@H](C)C[C@@H]2OC [Tacrolimus (monohydrate)]
- Difference [1, 17]: −0.26
- Cholesterol-free [1, 15]: 1.012
- Complete ([1]; NCI-H292 cells, complete media): 0.7533
- Cholesterol-free media + simvastatin (0.04 μM) [2, 6]: 1.131
- Complete Media [2, 7]: 1.225
- Difference [2, 8]: 0.09
